According to article PMC5145181, “Structural Mapping and Functional Characterization of Zebrafish Class B G-Protein Coupled Receptor (GPCR) with Dual Ligand Selectivity towards GLP-1 and Glucagon” (PLoS ONE, 2016):

Tested on: zfGPCR (dual zfGLP-1R/GCGR)
Assay: Intracellular cAMP in COS-7 cells expressing recombinant zfGPCR
Assay type: cell-based, zebrafish (Danio rerio)
Settings: 20 min at 37°C, pH 7.4, 1 mM 1-methyl-3-isobutylxanthine, enzyme immunoassay; n = 9 zfGLP-1, n = 5 hGLP-1, zf glucagon, h glucagon, n = 3 exendin-4, n = 6 zfGLP-2. 95% CI: zfGLP-1 0.24–0.80; hGLP-1 0.65–1.63; zf glucagon 0.20–2.9; h glucagon 0.18–1.63; exendin-4 0.07–0.46; zfGLP-2 16.8–72.6
Description: The ability of different peptides to stimulate the increase in intracellular cAMP levels following their binding to the recombinant zfGPCR transiently expressed in COS-7 cells was measured using methods that we developed for non-mammalian G-protein coupled receptors. In brief, COS-7 cells were grown to confluence in 100-mm plates at 37°C and transfected with the pcDNA3 vector containing the recombinant zfGPCR using the TransFast transfection reagent (Promega, Madison, WI) at a […] of plasmid DNA (25 ug) to transfection reagent (75 μL). After 24 h cells were trypsynized and transferred to 24-well plates (Biocore, Becton-Dickinson, Franklin Lakes, NJ). Peptides (pM-μM) were added 24–48 h later. Cells were equilibrated prior to the addition of peptides with the assay buffer (DMEM, 0.5% BSA, 20mM HEPES, 1mM 1-methyl-3-isobutylxanthine, 0.1mM phenylmethylsulfonyl fluoride, pH 7.4) for 20 min at 37°C. Each peptide concentration was added in triplicate wells for 20 min at 37°C. cAMP dose-response curves for each tested peptide were obtained in a single 24-well plate. In all experiments, forskolin (100 nM) (Sigma-Aldrich, St.Louis, MO) was added as a positive control, also in triplicate wells, in the same 24-well plate as the tested peptide. After incubation, the media was removed and cells were lysed by the addition of cold ethanol (1 mL per well). Cell debris was pelleted by centrifugation (10,000 g) for 10-min, and supernatants were dried using a vacuum concentrator. Samples were resuspended in an assay buffer provided by the manufacturer and cAMP levels were quantified by the enzyme immunoassay kit (Cayman Chemicals, Ann Arbor, MI) according to the manufacturer’s instructions. The basal concentration of cAMP (in the absence of peptides) was taken as 1.00, and was in the range of 9–16 pmol/well. Results are presented as a fold-increase over basal.
Results were plotted by the Origin 9 software (OriginLab), and EC50 values were calculated by Prism 4 software as described below.
Results from the functional experiments with recombinant zfGPCR transiently expressed in COS-7 cells were analyzed by the Prism 4 software using a four-parameter logistic sigmoidal curve fit model. Data points represent mean +/- SEM.
They are shown together with the 95% confidence intervals (CIs).
Comparison of EC50 values calculated from the zfGLP-1 cAMP dose-response curve with the EC50 calculated from the cAMP dose-response curves for each of the tested peptides were performed by the F-test from the Prism 4 software which compares the fitted mid-point (EC50) from the data sets of the two dose-response curves under comparison. Conditions of analysis were as follows: (i) in the normalization step y = 0% was set to be 1 (the basal cAMP concentration taken as 1); y = 100% was set to be the largest value in each data set; (ii) constrained curve-fit parameters were set to be equal to 0.00 on the bottom, 100 on top; (iii) EC50 was not constrained; (iv) the selected option in the non-linear regression curve fit was intended on finding out whether the best-fit of a selected parameter (EC50) differs between two sets.

In the case of “exendin-4: peptide exclusively found in the saliva of a lizard; agonist of GLP-1R; purchased from Bachem”, the EC50 is reported as 180 pM.
